# Measurements taken from patent US20100312073A1, “METHOD OF […] […]” (priority 2008, published 2010).
# Like-named read-outs stand apart in the source and are kept apart here.
# Test system: DNIC efficiency (diffuse noxious inhibitory control)
# Conditions: 60 mg once a day for one week, healthy volunteers
# Text: According to an exemplary testing procedure, the DNIC can be assessed as the difference of pain ratings to ‘test stimulus’ applied before and during the immersion of the contralateral hand into hot water bath (conditioning stimulus) as elaborated infra. Exemplary test stimulus of a 30 seconds period with contact heat, such as 30×30 mm^2 thermode TSA-2001 available from Medoc, can be delivered for instance on the non-dominant forearm at the individually-predetermined temperature that evoked pain intensity of 60 on a 0-100 NPS (more details in Granot et al., 2006). The stimulus temperature can be raised by 2° C./sec from 32° C. to the destination temperature. Fifteen minutes after the completion the first pre-immersion test, the patient is asked to immerse his/her dominant hand for 1′ into the water bath of 46.5° C. (Neto Cooling Bath CBN 8-30, Allerod, Denemark), while second application of the ‘test stimulus’ is repeated during last 30 seconds of immersion. […]
# DNIC paradigm, tested at baseline and after each of the treatments, consisted of administration of two painful stimuli, a test-pain delivered by contact heat, and a ‘conditioning’ pain induced by hot water immersion of the other hand. The DNIC efficiency was calculated as the difference between pain perceptions induced by the test-pain when given alone, and when given concomitantly with the conditioning one.
structure (smiles),measurement,setting,value
CNCC[C@H](Oc1cccc2ccccc12)c1cccs1 [Duloxetine],Duloxetine treatment DNIC score,"high pre-treatment DNIC group (pre-treatment DNIC score 32.50), NS vs. pre-treatment",29.26
same,Duloxetine treatment DNIC score,"low pre-treatment DNIC group (pre-treatment DNIC score 0.15), P<0.05 vs. pre-treatment (Tukey)",19.35
